This note sets out measurements from ChEMBL document CHEMBL4834498, “Positive allosteric modulators (PAMs) of the group II metabotropic glutamate receptors: Design, synthesis, and evaluation as ex-vivo tool compounds” (Bioorg Med Chem Lett, 2021).

The source made the active and inactive calls. The rule behind the calls is not given here.

Assay [1] has as its target Metabotropic glutamate receptor 3 (Rattus norvegicus) (UniProt P31422). The assay can be described thus: Positive allosteric modulator activity at rat mGlu3 receptor transfected in GIRK channel overexpressing cells assessed as potentiation of glutamate-induced response by thallium mobilization assay relative to glutamate. Set-up: concentration or dose not given beside the values. Conditions: filed as positive allosteric modulator.

For assay [2], the target named is Metabotropic glutamate receptor 2 (Rattus norvegicus) (UniProt P31421). The assay is described as follows: Positive allosteric modulator activity at rat mGlu2 receptor transfected in GIRK channel overexpressing cells assessed as potentiation of glutamate -induced response by thallium mobilization assay relative to glutamate. Set-up: concentration or dose not given beside the values. Particulars: filed as positive allosteric modulator.

The target of assay [3] is Metabotropic glutamate receptor 2 (Rattus norvegicus, UniProt P31421). The assay is described as follows: Positive allosteric modulator activity at rat mGlu2 receptor transfected in GIRK channel overexpressing cells assessed as potentiation of glutamate-induced response by thallium mobilization assay. Particulars: read-out: EC50.
Assay [4] has as its target Metabotropic glutamate receptor 3 (Mus musculus) (UniProt Q9QYS2). The assay can be described thus: Positive allosteric modulator activity at mGlu3 receptor in CaMK2-Cre::GCaMP6s transgenic mouse PFC pyramidal cells assessed as potentiation of LY379268-induced Ca2+ mobilization at 10 uM in presence of mGlu2 negative allosteric modulator, VU6001966 by calcium imagining analysis. The class given is functional. Conditions: filed as positive allosteric modulator. In general terms: Calcium assays in cells follow changes in intracellular calcium, usually with a dye or a luminescent sensor.

Assay [5] addresses Metabotropic glutamate receptor 3 (Rattus norvegicus, UniProt P31422). The assay is described as follows: Positive allosteric modulator activity at rat mGlu3 receptor transfected in GIRK channel overexpressing cells assessed as potentiation of glutamate-induced response by thallium mobilization assay. Particulars: read-out: EC50.

Chain of Metabotropic glutamate receptor 3 (P31422 whole entry): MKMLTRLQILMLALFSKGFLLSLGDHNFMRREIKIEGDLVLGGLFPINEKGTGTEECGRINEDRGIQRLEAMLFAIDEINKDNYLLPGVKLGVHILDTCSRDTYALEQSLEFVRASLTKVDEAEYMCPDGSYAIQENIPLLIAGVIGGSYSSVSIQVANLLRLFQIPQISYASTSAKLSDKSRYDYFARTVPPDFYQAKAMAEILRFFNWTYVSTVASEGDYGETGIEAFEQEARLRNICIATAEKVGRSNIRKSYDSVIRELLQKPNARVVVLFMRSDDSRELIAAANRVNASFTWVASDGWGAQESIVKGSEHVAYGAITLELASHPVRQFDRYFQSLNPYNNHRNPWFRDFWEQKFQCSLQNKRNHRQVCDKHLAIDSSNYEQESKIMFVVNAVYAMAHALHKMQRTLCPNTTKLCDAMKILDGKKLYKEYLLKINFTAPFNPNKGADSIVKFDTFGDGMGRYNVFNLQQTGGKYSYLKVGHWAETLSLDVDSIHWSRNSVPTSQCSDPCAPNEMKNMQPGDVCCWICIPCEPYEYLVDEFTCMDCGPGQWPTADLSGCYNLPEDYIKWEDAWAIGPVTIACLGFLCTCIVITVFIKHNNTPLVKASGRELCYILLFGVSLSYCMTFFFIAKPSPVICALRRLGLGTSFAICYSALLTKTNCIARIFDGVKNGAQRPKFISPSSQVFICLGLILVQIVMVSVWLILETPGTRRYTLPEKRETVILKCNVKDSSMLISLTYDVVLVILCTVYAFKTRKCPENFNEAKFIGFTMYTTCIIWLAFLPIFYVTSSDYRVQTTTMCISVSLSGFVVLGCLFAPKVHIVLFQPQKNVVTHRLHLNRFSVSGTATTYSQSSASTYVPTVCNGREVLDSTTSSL
Chain of Metabotropic glutamate receptor 3 (Rattus norvegicus) (P31422 23-879 limits assumed): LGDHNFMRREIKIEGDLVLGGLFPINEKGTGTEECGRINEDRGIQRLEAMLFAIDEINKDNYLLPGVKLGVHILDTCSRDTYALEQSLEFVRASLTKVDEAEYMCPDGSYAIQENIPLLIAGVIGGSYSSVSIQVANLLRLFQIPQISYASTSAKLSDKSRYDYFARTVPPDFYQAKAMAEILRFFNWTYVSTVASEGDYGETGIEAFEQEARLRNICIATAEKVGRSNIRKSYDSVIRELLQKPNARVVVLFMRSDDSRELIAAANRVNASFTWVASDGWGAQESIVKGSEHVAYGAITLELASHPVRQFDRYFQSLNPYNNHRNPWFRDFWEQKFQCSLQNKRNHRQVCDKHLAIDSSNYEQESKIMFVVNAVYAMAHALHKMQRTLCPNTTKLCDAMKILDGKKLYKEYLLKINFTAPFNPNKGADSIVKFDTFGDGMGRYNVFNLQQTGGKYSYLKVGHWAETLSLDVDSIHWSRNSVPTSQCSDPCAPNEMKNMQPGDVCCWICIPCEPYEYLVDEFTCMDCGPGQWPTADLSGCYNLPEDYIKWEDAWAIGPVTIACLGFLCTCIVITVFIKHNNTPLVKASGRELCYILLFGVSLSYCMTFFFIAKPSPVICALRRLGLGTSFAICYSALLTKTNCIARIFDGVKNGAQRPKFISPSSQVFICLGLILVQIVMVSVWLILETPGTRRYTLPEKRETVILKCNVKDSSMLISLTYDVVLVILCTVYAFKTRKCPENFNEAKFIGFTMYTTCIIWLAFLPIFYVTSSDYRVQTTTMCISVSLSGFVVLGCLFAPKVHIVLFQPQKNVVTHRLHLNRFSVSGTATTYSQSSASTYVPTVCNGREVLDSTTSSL
Chain of Metabotropic glutamate receptor 2 (P31421 whole entry): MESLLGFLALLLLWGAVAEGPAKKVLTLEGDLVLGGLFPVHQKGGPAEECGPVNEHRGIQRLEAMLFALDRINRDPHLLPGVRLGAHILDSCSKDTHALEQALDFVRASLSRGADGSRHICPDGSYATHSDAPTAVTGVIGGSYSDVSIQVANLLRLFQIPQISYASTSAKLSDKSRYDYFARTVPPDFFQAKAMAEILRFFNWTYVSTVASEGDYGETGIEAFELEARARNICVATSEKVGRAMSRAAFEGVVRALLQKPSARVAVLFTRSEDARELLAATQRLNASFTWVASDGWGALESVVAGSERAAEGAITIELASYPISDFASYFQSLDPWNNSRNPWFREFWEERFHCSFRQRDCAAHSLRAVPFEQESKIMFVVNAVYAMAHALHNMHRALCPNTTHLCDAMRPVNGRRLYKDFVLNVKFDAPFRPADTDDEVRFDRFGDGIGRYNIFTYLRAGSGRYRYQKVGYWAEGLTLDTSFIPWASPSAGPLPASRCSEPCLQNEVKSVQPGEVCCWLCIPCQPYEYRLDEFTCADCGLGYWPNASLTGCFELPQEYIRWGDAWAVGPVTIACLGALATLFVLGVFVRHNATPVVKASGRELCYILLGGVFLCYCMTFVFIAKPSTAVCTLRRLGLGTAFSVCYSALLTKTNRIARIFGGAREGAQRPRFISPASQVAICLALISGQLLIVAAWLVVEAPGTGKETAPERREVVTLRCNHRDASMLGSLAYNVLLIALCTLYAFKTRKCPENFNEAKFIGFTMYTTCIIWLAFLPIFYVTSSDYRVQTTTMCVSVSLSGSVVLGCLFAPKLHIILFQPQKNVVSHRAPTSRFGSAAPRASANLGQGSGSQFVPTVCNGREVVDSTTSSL
Chain of Metabotropic glutamate receptor 3 (Mus musculus) (Q9QYS2 whole entry): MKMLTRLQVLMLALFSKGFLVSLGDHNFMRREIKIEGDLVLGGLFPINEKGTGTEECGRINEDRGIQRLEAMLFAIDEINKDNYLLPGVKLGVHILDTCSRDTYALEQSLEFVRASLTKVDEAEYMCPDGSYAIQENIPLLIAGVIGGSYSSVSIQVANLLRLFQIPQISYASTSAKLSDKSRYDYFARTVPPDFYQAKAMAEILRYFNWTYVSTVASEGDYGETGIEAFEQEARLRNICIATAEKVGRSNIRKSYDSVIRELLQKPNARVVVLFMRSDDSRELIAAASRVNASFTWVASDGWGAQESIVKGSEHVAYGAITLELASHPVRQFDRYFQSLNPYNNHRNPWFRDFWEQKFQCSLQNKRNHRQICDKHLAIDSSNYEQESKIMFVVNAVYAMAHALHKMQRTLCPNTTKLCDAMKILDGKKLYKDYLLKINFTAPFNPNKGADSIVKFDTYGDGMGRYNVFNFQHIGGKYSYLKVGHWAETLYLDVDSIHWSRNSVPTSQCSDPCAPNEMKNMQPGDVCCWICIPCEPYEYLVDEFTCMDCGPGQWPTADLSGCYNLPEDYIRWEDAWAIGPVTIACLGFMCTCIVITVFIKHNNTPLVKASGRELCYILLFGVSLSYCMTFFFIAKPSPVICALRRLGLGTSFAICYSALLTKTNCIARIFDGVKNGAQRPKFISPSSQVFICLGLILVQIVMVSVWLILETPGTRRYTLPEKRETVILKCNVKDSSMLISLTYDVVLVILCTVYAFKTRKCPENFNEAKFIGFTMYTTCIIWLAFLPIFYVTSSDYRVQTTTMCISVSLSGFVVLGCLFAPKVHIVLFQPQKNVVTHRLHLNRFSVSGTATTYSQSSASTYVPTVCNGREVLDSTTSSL
Chain of Metabotropic glutamate receptor 2 (Rattus norvegicus) (P31421 19-872 limits assumed): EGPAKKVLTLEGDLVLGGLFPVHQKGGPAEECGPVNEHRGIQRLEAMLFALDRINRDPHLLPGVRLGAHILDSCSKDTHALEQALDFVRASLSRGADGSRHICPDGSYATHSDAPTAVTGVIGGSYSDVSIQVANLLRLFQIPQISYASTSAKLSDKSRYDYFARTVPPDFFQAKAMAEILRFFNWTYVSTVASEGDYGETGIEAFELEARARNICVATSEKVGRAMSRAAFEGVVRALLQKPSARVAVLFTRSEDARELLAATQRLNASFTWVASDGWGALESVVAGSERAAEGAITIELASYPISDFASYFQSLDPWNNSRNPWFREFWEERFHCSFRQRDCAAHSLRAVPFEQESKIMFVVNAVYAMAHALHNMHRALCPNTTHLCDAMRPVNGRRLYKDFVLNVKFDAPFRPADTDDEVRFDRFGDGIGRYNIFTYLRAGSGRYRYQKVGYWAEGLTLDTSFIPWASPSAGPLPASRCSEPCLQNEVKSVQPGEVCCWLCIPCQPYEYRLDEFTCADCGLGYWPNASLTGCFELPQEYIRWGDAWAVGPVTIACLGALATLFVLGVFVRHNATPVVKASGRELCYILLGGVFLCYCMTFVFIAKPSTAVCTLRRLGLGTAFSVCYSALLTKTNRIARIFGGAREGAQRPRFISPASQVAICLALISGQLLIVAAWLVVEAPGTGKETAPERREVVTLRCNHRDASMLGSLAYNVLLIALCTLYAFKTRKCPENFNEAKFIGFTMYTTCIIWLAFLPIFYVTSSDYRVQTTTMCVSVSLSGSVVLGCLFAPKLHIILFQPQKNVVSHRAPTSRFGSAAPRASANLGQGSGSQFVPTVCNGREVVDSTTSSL

On to `COc1ccc(C(=O)O)cc1OC[C@H](C)COc1ccc(C(=O)CC(C)(C)C)c(O)c1C`, for which the Activity in assay [1] amounted to 111%; in assay [2], 98%. Also, the results for the EC50 in assay [3] and in assay [5] were 63 nM and 384 nM, respectively. For the same compound, in assay [4], the outcome was Active.
